The target in assay [1] is T1, PDGFRα(T674I) (Homo sapiens, UniProt P16234, T674I).
T1 construct: purchased Carna Biosciences
Briefly: Off-chip Mobility Shift Assay (MSA) kinase inhibition. Type of assay: biochemical. As for the experimental part:
(§1) Off-chip Mobility Shift Assay (MSA) by Cama Biosciences, Inc (Natick, Mass.) a used for measuring the kinase activity and inhibition. • 1) The 5 μL of x4 compound solution, 5 μL of x4 Substrate/ATP/Metal solution, and 10 μL of x2 kinase solution were prepared with assay buffer (20 mM HEPES, 0.01% Triton X100, 2 mM DTT, pH 7.5) and mixed and incubated in a well of polypropylene 384 well microplate for 1 or 5 hour(s)* at room temperature. (*; depending on kinase) • 2) 70 μL of Termination Buffer (QuickScout Screening Assist A; Cama Biosciences) was added to the welt • 3) The reaction mixture was applied to LabChip system (Perkin Elmer), and the product and substrate peptide peaks were separated and quantitated. • 4) The kinase reaction was evaluated by the product ratio calculated from peak heights of product (P) and substrate (S) peptides (P/(P+S)). • 5) The reaction conditions were followed according to assay protocols of Ca n Biosciences, Inc (BMA 3F, 1-5-5 Minatojima-Minamimachi, Chuo-ku, Kobe 650-0047, Japan; www.carnabio.com). • 6 Data analysis: The readout value of reaction control (complete reaction mixture) was set as a 0% inhibition, and the readout value of background (Enzyme (−)) was set as a 100% inhibition, then the percent inhibition of each test solution was calculated, […]

Assay [2] deals with T2, PDGFRα(D842V) (Homo sapiens, UniProt P16234, D842V).
T2 construct: purchased Carna Biosciences
Described as above. Type of assay: biochemical. As to the method: as §1

In assay [3] the target is T3, PDGFRα(V561D) (Homo sapiens, UniProt P16234, V561D).
T3 construct: purchased Carna Biosciences
The description is as above. Type of assay: biochemical. As for the experimental part:
as §1

Assay [4] concerns the target T4, KIT(T670I) (Homo sapiens, UniProt P10721, T670I).
T4 construct: purchased Carna Biosciences
The description is as above. The note with it: for inhibition at 0.1 µM: inhibitor concentration 0.1 μM. It is filed as biochemical. The essentials: (§2)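 Incubation of each kinase with compound plus substrate/ATP/metal for 1 or 5 h, room temperature, 20 mM HEPES pH 7.5 buffer; off-chip mobility shift assay.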

Assay [5] has as its target T5, BRK (Homo sapiens, UniProt Q13882).
T5 construct: purchased Carna Biosciences
Described as above. Type of assay: biochemical. The note with it: for inhibition at 0.1 µM: inhibitor concentration 0.1 μM. The essentials: as §2

The target in assay [6] is T6, BRAF (Homo sapiens, UniProt P15056).
T6 construct: purchased Carna Biosciences
The assay is described as above. Type of assay: biochemical. In short, it runs like this:
as §2

The subject of assay [7] is breast cancer cell line T-47D. Briefly: Cell growth assay with breast cancer cell line T-47D. It is filed as cell-based. The note with it: Homo sapiens, T47D, 72 h, T-47D cells, PrestoBlue Cell Viability reagent, read-out: IC50 inhibition of cell growth. As to the method:
[…] of the complete medium was then gently dispersed over the surface of the cell layer for several times. The cell concentration was adjusted to 1×10^4 cells/mL with the complete medium. A 100 μL aliquot of the cell suspension was added to the well of a 96-well plate, and the plate was incubated overnight at 37° C. under 5% CO2 with saturated humidity. On the next day, the medium in each well was aspirated and replaced with a 100 μL aliquot of pre-warmed complete medium at 37° C. in the presence or absence of the test compounds at various concentrations from 0-100 μM. The test compounds were dissolved in DMSO, and the final DMSO concentration in the cell culture was no more than 1%. The plate was incubated for 72 hours at 37° C. under 5% CO2 with saturated humidity. At end of the cell culture a 10 μL aliquot of PrestoBlue® Cell Viability reagent (ThermoFisher Scientific) was added into the well and the plate was incubated at 37° C. for 30 min. The absorption at 570 and 600 nm were measured with a SpectraMax Microplate reader (Molecular Devices), The absorbance at […] was normalized to that at 600 nm.

The target in assay [8] is T7, BMX (Homo sapiens, UniProt P51813).
T7 construct: purchased Carna Biosciences
T7 sequence (P51813 1-675): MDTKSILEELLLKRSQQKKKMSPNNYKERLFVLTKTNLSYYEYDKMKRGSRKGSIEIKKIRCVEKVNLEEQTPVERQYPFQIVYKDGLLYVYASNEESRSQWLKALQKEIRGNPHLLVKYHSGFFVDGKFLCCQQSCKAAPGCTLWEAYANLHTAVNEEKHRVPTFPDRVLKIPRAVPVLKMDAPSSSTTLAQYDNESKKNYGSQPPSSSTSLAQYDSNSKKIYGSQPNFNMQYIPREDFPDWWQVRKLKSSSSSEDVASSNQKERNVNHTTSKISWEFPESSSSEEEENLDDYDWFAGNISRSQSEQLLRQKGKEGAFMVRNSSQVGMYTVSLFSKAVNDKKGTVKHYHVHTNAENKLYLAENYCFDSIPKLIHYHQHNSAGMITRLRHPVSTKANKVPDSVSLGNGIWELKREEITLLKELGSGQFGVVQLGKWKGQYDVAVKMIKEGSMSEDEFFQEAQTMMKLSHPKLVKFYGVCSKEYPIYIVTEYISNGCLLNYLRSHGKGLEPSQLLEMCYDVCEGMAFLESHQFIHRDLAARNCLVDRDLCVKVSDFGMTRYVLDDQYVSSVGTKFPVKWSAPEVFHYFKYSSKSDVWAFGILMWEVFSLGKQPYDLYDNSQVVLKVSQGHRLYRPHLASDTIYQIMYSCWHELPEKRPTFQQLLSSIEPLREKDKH
Briefly: Off-chip Mobility Shift Assay (MSA) kinase inhibition. The note with it: inhibitor concentration 0.1 μM. Type of assay: biochemical. In short, it runs like this:
as §2

For assay [9], the target named is T8, ALK (Homo sapiens, UniProt Q9UM73).
T8 construct: purchased Carna Biosciences
The assay is described as above. It is filed as biochemical. The settings on record: for inhibition at 0.1 µM: inhibitor concentration 0.1 μM. In short, it runs like this:
as §2

Assay [10] deals with T9, CSK (Homo sapiens, UniProt P41240).
T9 construct: purchased Carna Biosciences
The assay is described as above. Type of assay: biochemical. As for the experimental part:
as §1

Assay [11] concerns the target T10, EPHA5 (Homo sapiens, UniProt P54756).
T10 construct: purchased Carna Biosciences
Described as above. The settings on record: inhibitor concentration 1 μM. Type of assay: biochemical. As to the method:
as §1

Assay [12] concerns the target T11, RET(S891A) (Homo sapiens, UniProt P07949, S891A).
T11 construct: purchased Carna Biosciences
The description is as above. It is filed as biochemical. As to the method: as §1

Assay [13] deals with T12, MAP2K3 (Homo sapiens, UniProt P46734).
T12 construct: purchased Carna Biosciences
Described as above. Type of assay: biochemical. The note with it: inhibitor concentration 1 μM. As for the experimental part: as §1

Assay [14] deals with T13, FYN(isoform b) (Homo sapiens, UniProt P06241).
T13 construct: purchased Carna Biosciences
The description is as above. Type of assay: biochemical. As to the method: as §1

Setting [15] is: inhibitor concentration 0.01 μM, 0.01 µM.
The mark [16] stands for this setting: inhibitor concentration 0.01 μM.

Some results are limits rather than exact numbers.

T3 sequence (P16234 24-1089 V561D): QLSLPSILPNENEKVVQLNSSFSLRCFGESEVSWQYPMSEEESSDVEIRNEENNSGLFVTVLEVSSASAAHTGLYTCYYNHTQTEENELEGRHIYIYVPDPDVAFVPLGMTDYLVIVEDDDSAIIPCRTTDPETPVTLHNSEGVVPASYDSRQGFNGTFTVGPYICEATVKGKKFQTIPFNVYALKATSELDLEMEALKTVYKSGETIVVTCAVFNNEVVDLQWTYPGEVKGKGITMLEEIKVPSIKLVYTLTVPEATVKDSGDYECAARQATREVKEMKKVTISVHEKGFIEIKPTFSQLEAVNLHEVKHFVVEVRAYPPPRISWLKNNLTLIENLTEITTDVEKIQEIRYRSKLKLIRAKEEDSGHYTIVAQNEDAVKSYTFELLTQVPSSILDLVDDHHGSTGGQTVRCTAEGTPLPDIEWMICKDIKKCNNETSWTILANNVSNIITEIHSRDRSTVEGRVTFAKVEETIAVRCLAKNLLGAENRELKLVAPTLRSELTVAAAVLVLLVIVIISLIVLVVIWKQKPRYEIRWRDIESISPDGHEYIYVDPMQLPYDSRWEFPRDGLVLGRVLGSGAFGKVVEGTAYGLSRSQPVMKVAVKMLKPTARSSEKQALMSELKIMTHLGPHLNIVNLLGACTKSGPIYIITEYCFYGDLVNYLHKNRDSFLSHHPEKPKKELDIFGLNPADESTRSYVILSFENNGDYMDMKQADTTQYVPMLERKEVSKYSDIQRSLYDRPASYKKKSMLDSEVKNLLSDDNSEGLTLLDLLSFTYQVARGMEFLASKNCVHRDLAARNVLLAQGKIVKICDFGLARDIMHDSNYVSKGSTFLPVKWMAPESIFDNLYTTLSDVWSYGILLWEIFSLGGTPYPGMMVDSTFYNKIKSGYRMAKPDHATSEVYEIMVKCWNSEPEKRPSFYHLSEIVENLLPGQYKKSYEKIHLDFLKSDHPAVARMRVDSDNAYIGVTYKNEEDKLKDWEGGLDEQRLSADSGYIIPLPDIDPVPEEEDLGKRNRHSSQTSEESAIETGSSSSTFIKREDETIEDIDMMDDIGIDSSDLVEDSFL
T5 sequence (Q13882 whole entry): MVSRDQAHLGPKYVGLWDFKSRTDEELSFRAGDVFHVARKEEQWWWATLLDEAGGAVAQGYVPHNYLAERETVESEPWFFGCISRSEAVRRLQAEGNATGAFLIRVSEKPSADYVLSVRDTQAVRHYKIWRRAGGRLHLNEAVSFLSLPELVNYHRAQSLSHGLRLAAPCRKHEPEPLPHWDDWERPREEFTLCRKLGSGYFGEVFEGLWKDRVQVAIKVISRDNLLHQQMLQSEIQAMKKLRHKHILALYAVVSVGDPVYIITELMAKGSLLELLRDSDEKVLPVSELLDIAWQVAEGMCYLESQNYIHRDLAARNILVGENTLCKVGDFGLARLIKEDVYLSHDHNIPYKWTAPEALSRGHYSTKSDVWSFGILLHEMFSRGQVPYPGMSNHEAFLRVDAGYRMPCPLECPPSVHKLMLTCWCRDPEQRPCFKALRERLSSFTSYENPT
T11 sequence (P07949 29-1114 S891A): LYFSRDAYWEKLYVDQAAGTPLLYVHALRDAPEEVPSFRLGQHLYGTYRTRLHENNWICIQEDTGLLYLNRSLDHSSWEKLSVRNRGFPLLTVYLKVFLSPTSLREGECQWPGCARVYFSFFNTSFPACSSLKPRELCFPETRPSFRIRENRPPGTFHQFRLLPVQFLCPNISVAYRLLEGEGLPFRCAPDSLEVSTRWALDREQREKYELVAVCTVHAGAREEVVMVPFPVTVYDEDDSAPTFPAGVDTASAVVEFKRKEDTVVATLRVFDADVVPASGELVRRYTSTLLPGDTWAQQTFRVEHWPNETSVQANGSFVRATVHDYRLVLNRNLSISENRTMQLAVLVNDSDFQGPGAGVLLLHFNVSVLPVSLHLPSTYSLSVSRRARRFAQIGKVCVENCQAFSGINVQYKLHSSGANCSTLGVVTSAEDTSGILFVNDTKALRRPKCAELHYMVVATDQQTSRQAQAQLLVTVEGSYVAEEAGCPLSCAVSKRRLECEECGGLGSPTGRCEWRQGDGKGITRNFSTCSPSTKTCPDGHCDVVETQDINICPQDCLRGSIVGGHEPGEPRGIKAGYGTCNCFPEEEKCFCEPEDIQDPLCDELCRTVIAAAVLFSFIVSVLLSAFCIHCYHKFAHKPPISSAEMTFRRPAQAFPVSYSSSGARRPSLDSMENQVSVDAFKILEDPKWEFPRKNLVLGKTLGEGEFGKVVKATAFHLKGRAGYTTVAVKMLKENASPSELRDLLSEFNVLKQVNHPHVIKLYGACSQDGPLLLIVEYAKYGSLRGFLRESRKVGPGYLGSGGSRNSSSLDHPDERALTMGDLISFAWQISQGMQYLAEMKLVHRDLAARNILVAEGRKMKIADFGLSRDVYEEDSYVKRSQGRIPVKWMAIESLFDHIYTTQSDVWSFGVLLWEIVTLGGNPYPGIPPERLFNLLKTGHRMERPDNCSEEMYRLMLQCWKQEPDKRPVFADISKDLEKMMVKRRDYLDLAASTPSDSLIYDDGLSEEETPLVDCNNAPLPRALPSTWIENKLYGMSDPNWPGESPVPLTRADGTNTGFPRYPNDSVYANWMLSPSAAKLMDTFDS
T4 sequence (P10721 26-976 T670I): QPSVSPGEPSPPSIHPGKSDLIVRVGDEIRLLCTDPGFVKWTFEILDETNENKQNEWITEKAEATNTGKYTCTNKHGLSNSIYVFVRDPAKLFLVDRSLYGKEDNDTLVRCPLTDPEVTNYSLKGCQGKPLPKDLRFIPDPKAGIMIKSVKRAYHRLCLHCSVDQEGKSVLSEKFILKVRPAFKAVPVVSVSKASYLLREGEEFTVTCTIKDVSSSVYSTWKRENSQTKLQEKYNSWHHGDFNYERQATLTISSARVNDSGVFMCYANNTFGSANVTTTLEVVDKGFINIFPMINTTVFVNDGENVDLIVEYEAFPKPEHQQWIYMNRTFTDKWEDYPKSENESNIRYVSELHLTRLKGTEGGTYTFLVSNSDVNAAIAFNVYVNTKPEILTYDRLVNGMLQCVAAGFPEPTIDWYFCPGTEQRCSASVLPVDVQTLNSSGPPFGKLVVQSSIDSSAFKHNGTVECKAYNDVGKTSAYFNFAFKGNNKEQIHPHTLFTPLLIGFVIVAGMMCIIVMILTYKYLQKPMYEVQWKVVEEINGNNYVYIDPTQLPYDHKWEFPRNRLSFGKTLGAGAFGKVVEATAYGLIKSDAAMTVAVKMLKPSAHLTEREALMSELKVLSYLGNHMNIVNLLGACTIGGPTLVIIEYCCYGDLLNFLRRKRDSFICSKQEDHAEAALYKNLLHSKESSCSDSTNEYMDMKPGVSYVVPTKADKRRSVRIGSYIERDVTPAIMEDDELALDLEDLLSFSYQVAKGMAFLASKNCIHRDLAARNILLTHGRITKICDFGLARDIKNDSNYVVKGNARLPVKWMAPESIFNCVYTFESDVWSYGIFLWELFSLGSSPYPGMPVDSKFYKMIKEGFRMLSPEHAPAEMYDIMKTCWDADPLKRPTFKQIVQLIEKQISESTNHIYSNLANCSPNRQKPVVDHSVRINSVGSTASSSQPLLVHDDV
T9 sequence (P41240 whole entry): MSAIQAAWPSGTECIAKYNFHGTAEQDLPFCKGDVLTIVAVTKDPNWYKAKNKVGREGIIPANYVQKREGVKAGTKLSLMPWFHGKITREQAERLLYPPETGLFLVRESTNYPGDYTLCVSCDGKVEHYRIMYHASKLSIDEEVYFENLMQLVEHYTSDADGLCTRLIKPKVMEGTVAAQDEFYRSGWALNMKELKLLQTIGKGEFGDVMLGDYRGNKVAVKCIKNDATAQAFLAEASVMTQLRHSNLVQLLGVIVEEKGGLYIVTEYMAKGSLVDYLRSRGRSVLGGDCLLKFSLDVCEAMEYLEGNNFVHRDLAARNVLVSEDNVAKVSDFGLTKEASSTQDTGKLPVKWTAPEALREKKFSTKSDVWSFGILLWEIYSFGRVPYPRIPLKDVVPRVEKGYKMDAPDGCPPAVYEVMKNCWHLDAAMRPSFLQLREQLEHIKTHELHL
T6 sequence (P15056 whole entry): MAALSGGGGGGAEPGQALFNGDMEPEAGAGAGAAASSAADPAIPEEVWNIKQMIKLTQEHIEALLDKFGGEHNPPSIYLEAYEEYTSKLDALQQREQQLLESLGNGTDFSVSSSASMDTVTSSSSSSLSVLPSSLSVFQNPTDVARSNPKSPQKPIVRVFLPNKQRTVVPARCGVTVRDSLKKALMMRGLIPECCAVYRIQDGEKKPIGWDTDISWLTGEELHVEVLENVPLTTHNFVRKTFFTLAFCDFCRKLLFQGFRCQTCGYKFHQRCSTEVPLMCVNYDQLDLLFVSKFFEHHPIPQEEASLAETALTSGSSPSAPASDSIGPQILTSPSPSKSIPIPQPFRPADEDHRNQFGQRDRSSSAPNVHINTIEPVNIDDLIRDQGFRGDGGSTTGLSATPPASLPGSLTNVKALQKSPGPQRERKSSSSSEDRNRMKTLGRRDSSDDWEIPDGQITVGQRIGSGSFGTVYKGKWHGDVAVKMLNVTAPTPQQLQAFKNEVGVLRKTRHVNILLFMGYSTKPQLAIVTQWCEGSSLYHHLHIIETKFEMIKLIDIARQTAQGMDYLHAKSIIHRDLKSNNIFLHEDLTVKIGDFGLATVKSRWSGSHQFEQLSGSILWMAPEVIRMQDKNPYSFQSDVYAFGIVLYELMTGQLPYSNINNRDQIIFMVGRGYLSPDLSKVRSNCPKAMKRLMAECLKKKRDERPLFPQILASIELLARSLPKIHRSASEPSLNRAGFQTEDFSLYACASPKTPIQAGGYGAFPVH
T1 sequence (P16234 24-1089 T674I): as the sequence (P16234 24-1089 V561D) above, with D538V, T651I counted along it
T2 sequence (P16234 24-1089 D842V): as the sequence (P16234 24-1089 V561D) above, with D538V, D819V counted along it

Regarding `C/C=C/S(=O)(=O)Nc1ccc(F)c(C(=O)c2c[nH]c3ncc(-c4ccc(Cl)cc4)cc23)c1F` [200-93b], in assay [1] (setting [15]), the “PDGFRα(T674I) inhibition” value is under 20%. For the same compound, in assay [2] (setting [15]), the “PDGFRα(D842V) inhibition” value was under 20%. The “PDGFRα(V561D) inhibition” value in [3] (setting [15]) is recorded as under 20%. For the same compound, the “KIT(T670I) inhibition” value in assay [4] (setting [15]) was under 20%. The BRK inhibition in assay [5] (setting [15]) is given as over 20%. Moreover, in assay [6] (setting [15]), the BRAF inhibition is reported as under 20%. The IC50 (as a rule, the concentration needed to halve the response being measured) in assay [7] is under 20 µM.

Regarding `CC(=O)CS(=O)(=O)Nc1ccc(F)c(C(=O)c2c[nH]c3ncc(-c4ccc(Cl)cc4)cc23)c1F` [200-117], the inhibition – broadly, the percentage by which the read-out fell short of the control – at 0.1 µM in assay [4] was under 30%; in assay [8] it was under 30%; in [5], over 30%; in assay [9], under 30%.

As for `O=C(c1c(F)ccc(NS(=O)(=O)CC(O)CO)c1F)c1c[nH]c2ncc(-c3ccc(Cl)cc3)cc12` (stereo not drawn) [200-73, N-[3-[5-(4-chlorophenyl)-lH-pyrrolo [2,3-b]pyridine-3-carbonyl]-2,4-difluorophenyl]-2,3-dihydroxypropane-l-sulfonamide], the inhibition at 0.1 µM in assay [4] was under 30%; in assay [8], under 30%; in assay [5], over 30%; in [9] it was under 30%; in assay [6] (inhibitor concentration 0.1 μM), under 30%. Further, the IC50 in [7] was under 20 µM.

As for `CC(O)CS(=O)(=O)Nc1ccc(F)c(C(=O)c2c[nH]c3ncc(-c4ccc(Cl)cc4)cc23)c1F` (centres unmarked) [200-115], the inhibition at 0.1 µM in [4] was under 30%; in [8], under 30%; in [5], over 30%; in assay [9] it was under 30%.

For `O=C(c1c(F)ccc(NS(=O)(=O)CCCO)c1F)c1c[nH]c2ncc(-c3ccc(Cl)cc3)cc12` [200-17, N-[3-[5-(4-chlorophenyl)-1H-pyrrolo[2,3-b]pyridine-3-carbonyl]-2,4-difluorophenyl]-3-hydroxypropane-1-sulfonamide], the inhibition at 1 µM is under 50% in [1] (inhibitor concentration 1 μM); over 50% in assay [10] (inhibitor concentration 1 μM); over 50% in [2] (inhibitor concentration 1 μM); under 50% in assay [11]; over 50% in assay [12] (inhibitor concentration 1 μM); over 50% in assay [13]. In addition, the inhibition at 1 µM was over 50% in [3] (inhibitor concentration 1 μM); over 50% in [14] (inhibitor concentration 1 μM); under 50% in [4] (inhibitor concentration 1 μM); over 50% in assay [5] (inhibitor concentration 1 μM); over 50% in [9] (inhibitor concentration 1 μM); under 50% in assay [6] (inhibitor concentration 1 μM). Also, the inhibition at 0.01 µM was under 30% in [10] (setting [16]); under 30% in [12] (setting [16]); under 30% in assay [3] (setting [16]); under 30% in assay [14] (setting [16]); over 30% in assay [5] (setting [16]). In addition, the inhibition at 0.1 µM in assay [10] (inhibitor concentration 0.1 μM) is over 50%; in [12] (inhibitor concentration 0.1 μM) it was over 50%; in assay [3] (inhibitor concentration 0.1 μM), over 50%; in [14] (inhibitor concentration 0.1 μM), under 50%; in [5], over 50%. Also, in assay [7], the IC50 is under 20 µM.

The values above are taken from patent publication US10106538B2, “Inhibitors of protein kinases” (PRINCETON DRUG DISCOVERY INC, priority 2015, dated 2018).
